Laboratory results taken from patent US6794126B2, “Methods for preventing or inhibiting neuronal cell death” (The Trustees of Columbia University in the City of New York, priority 1996, dated 2004).
“Also recorded” adds a separate entry of the source. Residues, ends and D or L forms follow the SMILES beside them. *: point of attachment. Cbz = O=C(OCc1ccccc1)*; CH2F = FC*

How the values were obtained:
[1] = test system: sympathetic neurons; test: Survival of sympathetic neurons exposed to UV irradiation; format: cell-based, rat; conditions: for survival of UV-treated sympathetic neurons: NGF present, pretreated before UV, flavopiridol 1 mM (sic, FIG. 6A), olomoucine 200 μM, isoolomoucine 200 μM, aphidicolin 10 μM; for concentration of maximal protection: UV-treated, day 1
Experimental: Cells were exposed to UV irradiation using the Stratolinker UV crosslinker (Stratagene®). Sympathetic neurons were exposed to 3×10^4 μJ while neuronal PC12 cells were exposed to […]. Each well was exposed with 200 μl of medium containing NGF with or without the appropriate drug. After irradiation 300 μl of additional medium containing NGF with or without drug was added.
(§1) The cells were plated onto collagen-coated 24-well dishes at a density of approximately 0.5 ganglia per well and maintained in RPMI 1640 medium supplemented with 10% heat-inactivated horse serum and 60 ng/ml mouse NGF for a period of three days prior to the survival experiment. A mixture of uridine and 5-fluorodeoxyuridine (10 mM each) was also added to eliminate non-neuronal cells on day two. No pretreatment with survival agent, unless otherwise noted, was necessary for effective survival of neurons exposed to AraC. In the case of UV irradiation, the neurons died quite rapidly. Accordingly, neuronal cultures were pretreated overnight (18 hr) with survival-promoting agents prior to UV irradiation. NGF deprivation was performed by washing with NGF-free medium and addition of anti-NGF antiserum as previously described (Park et al., 1996a). V-ASOD1 oligonucleotides, in conjunction with the nitric oxide generator, S-nitrosopenicillamine (SNAP; 100 μM) were added to the cultured sympathetic neurons as previously described (Troy et al., 1997). At appropriate times, the numbers of viable, phase bright neurons were determined by strip counting as previously described (Rydel and Greene; 1988). All experimental points are expressed relative to the original number of neurons present in each well and are reported as mean+/−SEM (n=3).

[2] = test system: sympathetic neurons; test: Survival of sympathetic neurons treated with AraC; format: cell-based; conditions: for survival of AraC-treated sympathetic neurons: NGF present, flavopiridol 1 mM, olomoucine 200 mM (printed, FIG. 8), isoolomoucine 200 μM, aphidicolin 10 μM; for maximal concentration required to protect from AraC: day 3; for toxicity of the CDK inhibitors to sympathetic neurons: beyond five days, even without AraC treatment
Experimental: A mixture of uridine and 5-fluorodeoxyuridine (10 mM each) was also added to eliminate non-neuronal cells on day two. No pretreatment with survival agent, unless otherwise noted, was necessary for effective survival of neurons exposed to AraC. In the case of UV irradiation, the neurons died quite rapidly. Accordingly, neuronal cultures were pretreated overnight (18 hr) with survival-promoting agents prior to UV irradiation. […] All experimental points are expressed relative to the original number of neurons present in each well and are reported as mean+/−SEM (n=3).

[3] = test system: sympathetic neurons; test: Survival of sympathetic neurons depleted of SOD1 (V-ASOD1 plus SNAP); format: cell-based, rat
Experimental: as §1

[4] = test system: proliferating PC12 cells; conditions: proliferating PC12 cells (Park et al., 1996a); cited from earlier work
[5] = test system: sympathetic neurons; test: Survival of sympathetic neurons deprived of NGF (Example 2); format: cell-based, rat; conditions: for death of sympathetic neurons deprived of NGF: CDK inhibitors, same experiments as SOD1 depletion (FIG. 10)
Experimental: as §1

[6] = test system: neuronal PC12 cells; test: Survival of neuronal PC12 cells depleted of SOD1 (Example 2); format: cell-based, rat
Experimental: Naive PC12 cells were cultured and passaged as previously described (Greene and Tischler, 1976). Neuronally-differentiated PC12 cells were generated by exposing PC12 cells to NGF in serum-free RPMI 1640 medium for 8-9 days. For survival experiments, neuronally-differentiated PC12 cells were plated onto collagen-coated 24-well tissue culture dishes at a density of approximately 2×10^5 cells per well. Neuronally-differentiated PC12 cells were cultured in serum-free RPMI 1640 medium containing NGF (100 ng/ml) throughout the course of survival experiments. At appropriate times of culture under the conditions described in the text, cells were lysed and the numbers of viable cells was evaluated as previously described (Rukenstein et al., 1991). All experimental points are expressed as a percentage of cells plated on day 0 and are reported as mean +/−SEM (n=3).

[7] = test system: PC12 cells; test: PC12 cell survival after SOD1 down-regulation by V-ASOD1; format: cell-based, rat
Experimental: (§2) PC12 cells were grown as previously described (Greene and Tishcler, 1976) on rat-tail collagen-coated dishes in RPMI 1640 medium containing 5% fetal calf serum and 10% heat-inactivated horse serum (complete medium). NGF primed PC12 cells were grown for at least 7 days in RPMI 1640 medium plus 1% horse serum and NGF (100 ng/ml). For cell survival assays involving trophic factor deprivation, cells (either naive or NGF-pretreated) were extensively washed in serum-free RPMI 1640 medium and re-plated on fresh collagen-coated 24-well dishes as previously described (Rukenstein et al., 1991) in RPMI 1640 medium lacking serum or NGF. For SOD1 down-regulation survival assays, cells were re-plated in complete medium with V-ASOD1 (vector linked antisense oligonucleotide to SOD1, 50 nM). Various concentrations of ICE inhibitors were included in the medium as indicated. Numbers of viable cells per culture were determined by quantifying intact nuclei as previously described (Rukenstein et al., 1991). Counts were performed in triplicate and reported as means±SEM.

[8] = test system: sympathetic neurons; test: Survival of cultured sympathetic neurons after NGF withdrawal (Example 1); format: cell-based, rat
Experimental: Sympathetic neuron cultures were prepared from 2 day old rat pups, as previously described (Ferrari et al., 1995). Cultures were grown in 24-well collagen coated dishes in RPMI 1640 medium plus 10% horse serum with mouse NGF (100 ng/ml). One day following plating, uridine and 5-fluorodeoxyuridine (10 μM each) were added to the cultures and left for three days to eliminate non-neuronal cells. On the sixth day following plating NGF was removed by washing the cultures three times with RPMI 1640 medium plus 10% horse serum, followed by the addition of medium containing anti-mouse NGF (1:200, Sigma) with or without ICE inhibitors. Each culture was scored, as previously described (Rydel and Greene, 1988), as numbers of living, phase-bright neurons at various times. Three replicate cultures were assessed for each condition and data were normalized to numbers of neurons present in each culture at the time of NGF withdrawal and reported as mean±SEM.

[9] = test system: PC12 cells; test: PC12 cell survival after withdrawal of serum/NGF (trophic factor deprivation); format: cell-based, rat
Experimental: as §2

[10] = test system: IL-1β; test: Assay of IL-1β secreted by PC12 cells (ELISA); format: cell-based, rat; conditions: cells treated with NGF, 24 h
Experimental: IL-1β was quantified by ELISA using the Intertest-1βX kit (Genzyme, Cambridge, Mass.). PC12 cells were grown as described above, on 24-well plates, in 500 μl of medium. After one day incubation, medium was removed and IL-1β measured following the manufacturer's instructions, and number of viable cells in each well quantified.

Molecule: Cn1cnc2nc(NCCO)nc(NCc3ccccc3)c21 [isoolomoucine]
- survival of UV-treated sympathetic neurons [1]: nearly ineffective
- survival of AraC-treated sympathetic neurons ([2]; AraC 100 μM): ineffective

Molecule: Cn1cnc2c(NCc3ccccc3)nc(NCCO)nc21 [olomoucine, 2-(2-hydroxyethylamino)-6-benzylamino-9-methylpurine]
- survival of UV-treated sympathetic neurons [1]: effectively promoted survival
- concentration of maximal protection [1]: 200 µM
- protection of sympathetic neurons depleted of SOD1 ([3]; ASOD1 50 nM with SNAP 100 μM): neither flavopiridol nor olomoucine protected
- survival of AraC-treated sympathetic neurons ([2]; AraC 100 μM): quite effectively promoted long term survival
- maximal concentration required to protect from AraC ([2]; AraC 100 μM): 200 µM
- toxicity of the CDK inhibitors to sympathetic neurons [2]: toxicity
- minimum concentration required to fully inhibit DNA synthesis [4]: 200 µM
- death of sympathetic neurons deprived of NGF [5]: effectively blocked the death
- death of neuronal PC12 cells depleted of SOD1 [6]: failed to inhibit death

Molecule: COC(=O)C[C@H](NC(=O)[C@H](C)NC(=O)[C@@H](NC(=O)OCc1ccccc1)C(C)C)C(=O)CF [ZVAD-FMK, ZVAD-fluoromethylketone] (Cbz-Val-Ala-Asp(OMe)-CH2F)
- dose required for maximal protection ([7]; V-ASOD1 50 nM, one day): 6 µM
- survival of sympathetic cultures exposed to UV irradiation ([1]; 50 μM, pretreated 16 hr): ineffective
- protection of sympathetic neurons depleted of SOD1 ([3]; 50 μM, exposed to nitric oxide generators): protected
- survival of sympathetic cultures exposed to AraC ([2]; 50 μM, AraC 100 μM): ineffective
- protection from death due to NGF-depletion ([5]; 50 μM): protects
- protection from NGF deprivation ([8]; 100 μM): protected
- concentration required to be fully protective ([9]; serum withdrawal, one day): 50 µM

Molecule: C[C@@]1(CO)[C@H](O)CC[C@@]2(C)[C@H]1CC[C@H]1C[C@@H]3C[C@@]12CC[C@]3(O)CO [aphidicolin]
- survival of UV-treated sympathetic neurons [1]: failed to block death
- survival of AraC-treated sympathetic neurons ([2]; AraC 100 μM): failed to block death

Molecule: CC(C)[C@H](NC(=O)[C@H](Cc1ccc(O)cc1)NC(=O)OCc1ccccc1)C(=O)N[C@@H](C)C(=O)N[C@@H](CC(=O)O)C(=O)CCl [ZYVAD-CMK, ZYVAD-chloromethylketone]
- protection from SOD1 down-regulation ([7]; 50 μM): full protection
- protection from NGF deprivation ([8]; 250 μM): no effect
- protection from trophic factor withdrawal ([9]; 250 μM): only partially effective; also recorded: partial protection

Molecule: CC(=O)N[C@@H](Cc1ccc(O)cc1)C(=O)N[C@H](C(=O)N[C@@H](C)C(=O)N[C@@H](CC(=O)O)C(=O)CCl)C(C)C [acYVAD-cmk]
- death evoked by SOD1 depletion ([3]; 250 μM, two days, ASOD1 with SNAP 100 μM): blocks death
- death due to NGF deprivation ([5]; 250 μM, two days): not death due to NGF deprivation

Molecule: CN1CC[C@H](c2c(O)cc(O)c3c(=O)cc(-c4ccccc4Cl)oc23)[C@H](O)C1 [flavopiridol]
- survival of UV-treated sympathetic neurons [1]: effectively promoted survival
- concentration of maximal protection [1]: 1 to 3 µM
- protection of sympathetic neurons depleted of SOD1 ([3]; ASOD1 50 nM with SNAP 100 μM): neither flavopiridol nor olomoucine protected
- survival of AraC-treated sympathetic neurons ([2]; AraC 100 μM): quite effectively promoted long term survival
- maximal concentration required to protect from AraC ([2]; AraC 100 μM): 1 µM
- toxicity of the CDK inhibitors to sympathetic neurons [2]: toxicity
- minimum concentration required to fully inhibit DNA synthesis [4]: 1 µM
- death of sympathetic neurons deprived of NGF [5]: effectively blocked the death
- death of neuronal PC12 cells depleted of SOD1 [6]: failed to inhibit death

B1: NGF: nerve growth factor (mouse NGF) (protein, UniProt P01139 122-241, looked up)
Beta-nerve growth factor: SSTHPVFHMGEFSVCDSVSVWVGDKTTATDIKGKEVTVLAEVNINNSVFRQYFFETKCRASNPVESGCRGIDSKHWNSYCTTTHTFVKALTTDEKQAAWRFIRIDTACVCVLSRKATRRG
- increase in IL-1β secretion [10]: 4 fold

B2: rmIL-1Ra: IL-1 receptor antagonist (protein, UniProt P25085 27-178, looked up)
Interleukin-1 receptor …: RPSGKRPCKMQAFRIWDTNQKTFYLRNNQLIAGYLQGPNIKLEEKIDMVPIDLHSVFLGIHGGKLCLSCAKSGDDIKLQLEEVNITDLSKNKEEDKRFTFIRSEKGPTTSFESAACPGWFLCTTLEADRPVSLTNTPEEPLIVTKFYFQEDQ
- suppression of cell death of V-ASOD1 treated PC12 cells ([7]; 100 ng/ml): completely suppressed cell death
- protection from trophic factor withdrawal ([9]; 10,000 ng/ml, one day): improved survival under these conditions only modestly
